Measurements taken from patent publication US20240000831A1, “MOLECULAR BASIS OF FATTY LIVER INHIBITION BY SODIUM BORATES” (YEDITEPE UNIVERSITESI, priority 2020, published 2024).
Where two headings read alike, the source gives them in different places.

How the values were obtained:
[1] = test system: non-alcoholic fatty liver pathway genes in healthy human cells; experiment: Microarray experiment: gene expression related to fatty liver; format: cell-based; details: healthy human cells treated for 3 days; ADIPOR2, PRKAG2, IRS1, PIK3R1, NFKB1, MAP3K11, BID, CYCS, BAX, CASP3, TGFB1
Experimental: All changes in the level of gene expression related to fatty liver in healthy human cells were determined by this method upon being treated with sodium borates for 3 days. It was determined how these genes affect the pathway related to fatty liver. As a result of the microarray experiment, it is understood that the expression level of many genes in the non-alcoholic fatty liver pathway decreased by 2 times and more, and fatty liver was prevented as the pathway lost its function substantially. Genes, whose expression was reduced, were ADIPOR2, PRKAG2, IRS1, PIK3R1, NFKB1, MAP3K11, BID, CYCS, BAX, CASP3 and TGFB1 (FIG. 1). In our in vivo study, it has been proven on animals that fatty liver was inhibited as a result of the failure of this pathway.

[2] = test system: fatty liver caused by high-fat diet in balb/c mice; experiment: In vivo experiment: liver weight of high-fat diet mice; details: YYD supplemented with 1.5 mg/g SB, 10 weeks, female balb/c mice
Experimental: (§1) 8-weeks-old female 24 balb/c mice were used for the in vivo experiment. The adaptation process was completed in cages in a temperature-controlled room with a 12-hour light/dark cycle. Then, the mice were divided into four different dietary groups (n=6 for each group): normal diet (2.70 kcal/g), high-fat diet (YYD) (4.00 kcal/g), YYD supplemented with 0.5 mg/g SB, and YYD supplemented with 1.5 mg/g SB. At the end of 10 weeks, mice were sacrificed and weights of their livers were measured. At the end of 10 weeks, the livers of the mice were removed and weighed, and it was observed that fatty liver caused by high-fat diet was inhibited by the use of 1.5 mg/g SB as a supplement (FIG. 2A).

[3] = test system: pathological disorders in the liver caused by high-fat diet in balb/c mice; experiment: Histological evaluation of liver tissue (hematoxylin-eosin staining scores); format: in vivo; details: for hematoxylin-eosin staining technique score (Mean ± SD): 10 weeks, n = 6, YYD alone 12.6 ± 1.54, control 1.60 ± 1.14
Experimental: as §1
Liver tissues of mice were prepared for histological evaluation. These tissue samples were immersed in 10% neutral formaldehyde prepared with 0.1 M phosphate buffer (pH 7.4) for fixation at 4° C. Subsequently, the samples were rinsed in tap water for 12 hours, then dehydrated in an alcohol batch and embedded in paraffin. From samples embedded in paraffin, 5 micron thick samples were obtained using a rotary microtome (Leica RM 2245 model; Leica Instruments, Germany). All tissue sections were taken onto poly-L-lysine coated slides. All these samples were stained with hematoxylin eosin staining technique and imaged under a light microscope (Leica DM6000B). […] This method has been used to evaluate the situation of pathological deteriorations caused by high fat diet when different sodium boron administrations are applied and when not applied.

[4] = Toxicology studies in rats adapted to humans; format: in vivo; details: daily dose of 500 mg, rat toxicology studies adapted to humans
Experimental: Today, there is no specific drug for direct treatment of fatty liver. […] It is known that boron homeostasis taken into mammalian systems is excreted via urine within 72 hours. Boron also regulates calcium, potassium and magnesium metabolisms in the body.

[5] = cited from earlier work

| Compound | decrease in expression levels of genes in the non-alcoholic fatty liver pathway [1] [times] | fatty liver caused by high-fat diet (liver weight) [2] | hematoxylin-eosin staining technique score (Mean ± SD) ([3]; YYD + 0.5 mg SB/g VA) | hematoxylin-eosin staining technique score (Mean ± SD) ([3]; YYD + 1.5 mg SB/g VA) | hematoxylin-eosin staining technique score (Mean ± SD) ([3]; YYD + 1.5 mg SB/g VA, listed as sodium borate) | pathological disorders caused by high-fat diet (histological evaluation) ([3]; both doses (0.5 and 1.5 mg/g), liver tissue) | side effects [4] | time to excretion via urine ([5]; mammalian systems) [h] | side effects ([5]; up to 18 mg of boron daily in adults) |
| --- | --- | --- | --- | --- | --- | --- | --- | --- | --- |
| sodium borate [SB] | ≥ 2 | inhibited | 8.6±1.14 | 3.6 ± 0.89 | 3.6±0.89 | decreased the pathological disorders | no side effects |  |  |
| [B] [boron] |  |  |  |  |  |  |  | ≤ 72 | does not cause any side effects |
